For this assay, the target named is Factor Xa (Homo sapiens, UniProt P00742). The experiment in a line: Activity towards Factor Xa: hydrolysis rate by variation in optical density with time (ΔOD/min). Type of assay: biochemical. As to conditions: hydrolysis rate (ΔOD/min) at equimolar doses; activity of reference product CP 1 specified as 100%. The method, then: The activity of the peptides according to the invention towards Factor Xa was determined by one of the conventional methods, such as the one described in EP-A-0 280 160 (see page 14), the hydrolysis rate being assessed by the variation in optical density with time (ΔOD/min). The results obtained at equimolar doses have been collated in Table III below, where the activity of the reference product CP 1 is specified as being equal to 100% for the sake of convenience.
Factor Xa, sequence (P00742 235-488 limits assumed): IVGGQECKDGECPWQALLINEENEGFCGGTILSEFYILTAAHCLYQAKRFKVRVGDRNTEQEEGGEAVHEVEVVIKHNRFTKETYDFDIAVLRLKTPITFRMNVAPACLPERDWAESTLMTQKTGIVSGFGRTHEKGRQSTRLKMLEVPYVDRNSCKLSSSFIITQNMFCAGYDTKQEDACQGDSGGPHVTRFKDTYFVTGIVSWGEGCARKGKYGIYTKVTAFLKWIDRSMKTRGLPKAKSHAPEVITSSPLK
Factor Xa, sequence (P00742 41-179 partner limits assumed): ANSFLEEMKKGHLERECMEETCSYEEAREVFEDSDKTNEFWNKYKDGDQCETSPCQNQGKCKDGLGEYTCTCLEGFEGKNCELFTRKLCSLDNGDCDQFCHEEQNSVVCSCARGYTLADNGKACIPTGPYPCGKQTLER

Non-standard residues stand in square brackets, D forms with d. Residues, ends and D or L forms follow the SMILES beside them. *: point of attachment. pNA = O=[N+]([O-])c1ccc(N*)cc1; X1 = COC(=O)CC(=O)*; Ms = CS(=O)(=O)*

Turning to `CC(C)C[C@@H](NS(C)(=O)=O)C(=O)NCC(=O)N[C@@H](CCCNC(=N)N)C(=O)Nc1ccc([N+](=O)[O-])cc1` [CP 1, reference compound] (Ms-[dL]-Gly-Arg-pNA), the “Activity (activity towards Factor Xa)” value was 100%.

In the case of `COC(=O)CC(=O)N[C@H](CC(C)C)C(=O)NCC(=O)N[C@@H](CCCNC(=N)N)C(=O)Nc1ccc([N+](=O)[O-])cc1` [Ex. 1, MM-D-Leu-Gly-L-Arg-pNA.AcOH], the “Activity (activity towards Factor Xa)” value is 115%. As for `CCOC(=O)CC(=O)N[C@H](CC(C)C)C(=O)NCC(=O)N[C@@H](CCCNC(=N)N)C(=O)Nc1ccc([N+](=O)[O-])cc1` [Ex. 2, EM-D-Leu-Gly-L-Arg-pNA], the figure is 132%. As for `CCCC[C@@H](NC(=O)CC(=O)OC)C(=O)NCC(=O)N[C@@H](CCCNC(=N)N)C(=O)Nc1ccc([N+](=O)[O-])cc1` [Ex. 14, MM-D-Nle-Gly-L-Arg-pNA], the figure is 140%. Next, `CC[C@@H](C)[C@@H](NC(=O)CC(=O)OC)C(=O)N[C@@H](CCC(=O)OC)C(=O)NCC(=O)N[C@@H](CCCNC(=N)N)C(=O)Nc1ccc([N+](=O)[O-])cc1` [Ex. 33, MM-D-Ile-L-Glu(OMe)-Gly-L-Arg-pNA] (X1-[dI]E(OMe)GR-pNA): 105%; `COCCOC(=O)N[C@H](CC(C)C)C(=O)NCC(=O)N[C@@H](CCCNC(=N)N)C(=O)Nc1ccc([N+](=O)[O-])cc1` [Ex. 61, Me-OCH2 CH2 O-CO-D-Leu-Gly-L-Arg-pNA.AcOH]: 145%; `COCCOCCOC(=O)N[C@H](CC(C)C)C(=O)NCC(=O)N[C@@H](CCCNC(=N)N)C(=O)Nc1ccc([N+](=O)[O-])cc1` [Ex. 62, Me-O(CH2 CH2 O)2 -CO-D-Leu-Gly-L-Arg-pNA.AcOH]: 105%. Turning to `COCCOCCOCCOC(=O)N[C@H](CC(C)C)C(=O)NCC(=O)N[C@@H](CCCNC(=N)N)C(=O)Nc1ccc([N+](=O)[O-])cc1` [Ex. 63, MeO(CH2 CH2 O)3 -CO-D-Leu-Gly-L-Arg-pNA], the “Activity (activity towards Factor Xa)” value turned out to be 110%. Turning to `COCCOCCOCCOCCOCCOCCOCCOC(=O)N[C@H](CC(C)C)C(=O)NCC(=O)N[C@@H](CCCNC(=N)N)C(=O)Nc1ccc([N+](=O)[O-])cc1` [Ex. 64, Me-O(CH2 CH2 O)7 -CO-D-Leu-Gly-L-Arg-pNA.AcOH], the “Activity (activity towards Factor Xa)” value was 103%. As to `CCCC[C@@H](NC(=O)OCCOCCOCCOC)C(=O)NCC(=O)N[C@@H](CCCNC(=N)N)C(=O)Nc1ccc([N+](=O)[O-])cc1` [Ex. 73], the “Activity (activity towards Factor Xa)” value was 121%.

Regarding `CCCCOCCOCCOCCOCCOCCOCCOCCOC(=O)N[C@H](CCCC)C(=O)NCC(=O)N[C@@H](CCCNC(=N)N)C(=O)Nc1ccc([N+](=O)[O-])cc1` [Ex. 101], the “Activity (activity towards Factor Xa)” value came out at 124%.

The values are drawn from patent US6121239A, “Peptide substrates for the identification of factor Xa” (Serbio, priority 1990, dated 2000).
